Data taken from ChEMBL document CHEMBL4130574, “Discovery of novel 2,4-diarylaminopyrimidine analogues as ALK and ROS1 dual inhibitors to overcome crizotinib-resistant mutants including G1202R” (Eur J Med Chem, 2018).
Calls of active or inactive are those of the source. The calls are words filed in the database; no cut-off is given here.

Tests used:
[1] = target: ALK tyrosine kinase receptor (Homo sapiens, UniProt Q9UM73, G1202R)
[2] = test system: KARPAS-299; assay: Antiproliferative activity against human KARPAS299 cells harboring NPM-ALK after 72 hrs by MTT assay; assay type: functional, cell-based; details: KARPAS-299, 72 h
[3] = target: ALK tyrosine kinase receptor (Homo sapiens, UniProt Q9UM73, S1206Y)
[4] = test system: ALK tyrosine kinase receptor (Homo sapiens), Q9UM73 [L1196M]
[5] = target: T1, ALK tyrosine kinase receptor (Homo sapiens, UniProt Q9UM73)
Description: Inhibition of recombinant human N-terminal GST-tagged ALK cytoplasmic domain (1058 to 1620 residues) expressed in baculovirus expression system using peptide substrate after 1 hr by mobility shift assay

[6] = target: Epidermal growth factor receptor (Homo sapiens, UniProt P00533)
Description: Inhibition of recombinant human N-terminal GST-tagged EGFR cytoplasmic domain (669 to 1210 residues) expressed in baculovirus expression system using peptide substrate after 1 hr by mobility shift assay

[7] = target: ALK tyrosine kinase receptor (Homo sapiens, UniProt Q9UM73, C1156Y)
[8] = test system: NCI-H460; assay: cells; details: Homo sapiens, NCI-H460, 72 h
Description: Antiproliferative activity against human NCI-H460 cells after 72 hrs by MTT assay

[9] = target: ALK tyrosine kinase receptor (Homo sapiens, UniProt Q9UM73, L1196M)
[10] = test system: HCC78; assay: Antiproliferative activity against human HCC78 cells harboring SLC34A2-ROS1 after 72 hrs by MTT assay; assay type: functional, cell-based; details: HCC78, 72 h
[11] = target: T2, Proto-oncogene tyrosine-protein kinase ROS (Homo sapiens, UniProt P08922); assay: Inhibition of ROS1 phosphorylation in human HCC78 cells at 100 nM after 6 hrs by Western blot method; assay type: cell-based
[12] = test system: KARPAS-299; assay: Induction of apoptosis in human KARPAS299 cells harboring NPM-ALK after 24 hrs by acridine orange/ethidium bromide staining based fluorescence microscopic method; assay type: functional, cell-based
[13] = target: ALK tyrosine kinase receptor (Homo sapiens, UniProt Q9UM73, T1151INS)
[14] = test system: HCC78; assay: Downregulation of ROS1 protein expression in human HCC78 cells at 100 nM after 6 hrs by Western blot method; assay type: functional, cell-based
[15] = target: T2, Proto-oncogene tyrosine-protein kinase ROS; assay: Inhibition of recombinant human N-terminal GST-tagged ROS1 cytoplasmic domain (1883 to 2347 residues) expressed in baculovirus expression system using peptide substrate after 1 hr by mobility shift assay
[16] = target: ALK tyrosine kinase receptor (Homo sapiens, UniProt Q9UM73, G1269A)
[17] = test system: NCI-H2228; assay: cells; details: Homo sapiens, NCI-H2228, 72 h
Description: Antiproliferative activity against human NCI-H2228 cells harboring EML4-ALK after 72 hrs by MTT assay

[18] = test system: KARPAS-299; assay: Downregulation of ALK protein expression in human KARPAS299 cells after 6 hrs by Western blot method; assay type: functional, cell-based
[19] = target: Hepatocyte growth factor receptor (Homo sapiens, UniProt P08581); assay: Inhibition of recombinant human N-terminal GST-tagged c-MET cytoplasmic domain (956 to 1390 residues) expressed in baculovirus expression system using peptide substrate after 1 hr by mobility shift assay
[20] = target: T1, ALK tyrosine kinase receptor; assay: Inhibition of ALK phosphorylation in human KARPAS299 cells after 6 hrs by Western blot method; assay type: cell-based
[21] = test system: A549; assay: cells; details: Homo sapiens, A549, 72 h
Description: Antiproliferative activity against human A549 cells harboring EGFR after 72 hrs by MTT assay

[22] = test system: ALK tyrosine kinase receptor (Homo sapiens), Q9UM73 [G1202R]
[23] = test system: HCC78; assay: Induction of apoptosis in human HCC78 cells harboring SLC34A2-ROS1 after 24 hrs by acridine orange/ethidium bromide staining based fluorescence microscopic method; assay type: functional, cell-based

T2 sequence (P08922 whole entry): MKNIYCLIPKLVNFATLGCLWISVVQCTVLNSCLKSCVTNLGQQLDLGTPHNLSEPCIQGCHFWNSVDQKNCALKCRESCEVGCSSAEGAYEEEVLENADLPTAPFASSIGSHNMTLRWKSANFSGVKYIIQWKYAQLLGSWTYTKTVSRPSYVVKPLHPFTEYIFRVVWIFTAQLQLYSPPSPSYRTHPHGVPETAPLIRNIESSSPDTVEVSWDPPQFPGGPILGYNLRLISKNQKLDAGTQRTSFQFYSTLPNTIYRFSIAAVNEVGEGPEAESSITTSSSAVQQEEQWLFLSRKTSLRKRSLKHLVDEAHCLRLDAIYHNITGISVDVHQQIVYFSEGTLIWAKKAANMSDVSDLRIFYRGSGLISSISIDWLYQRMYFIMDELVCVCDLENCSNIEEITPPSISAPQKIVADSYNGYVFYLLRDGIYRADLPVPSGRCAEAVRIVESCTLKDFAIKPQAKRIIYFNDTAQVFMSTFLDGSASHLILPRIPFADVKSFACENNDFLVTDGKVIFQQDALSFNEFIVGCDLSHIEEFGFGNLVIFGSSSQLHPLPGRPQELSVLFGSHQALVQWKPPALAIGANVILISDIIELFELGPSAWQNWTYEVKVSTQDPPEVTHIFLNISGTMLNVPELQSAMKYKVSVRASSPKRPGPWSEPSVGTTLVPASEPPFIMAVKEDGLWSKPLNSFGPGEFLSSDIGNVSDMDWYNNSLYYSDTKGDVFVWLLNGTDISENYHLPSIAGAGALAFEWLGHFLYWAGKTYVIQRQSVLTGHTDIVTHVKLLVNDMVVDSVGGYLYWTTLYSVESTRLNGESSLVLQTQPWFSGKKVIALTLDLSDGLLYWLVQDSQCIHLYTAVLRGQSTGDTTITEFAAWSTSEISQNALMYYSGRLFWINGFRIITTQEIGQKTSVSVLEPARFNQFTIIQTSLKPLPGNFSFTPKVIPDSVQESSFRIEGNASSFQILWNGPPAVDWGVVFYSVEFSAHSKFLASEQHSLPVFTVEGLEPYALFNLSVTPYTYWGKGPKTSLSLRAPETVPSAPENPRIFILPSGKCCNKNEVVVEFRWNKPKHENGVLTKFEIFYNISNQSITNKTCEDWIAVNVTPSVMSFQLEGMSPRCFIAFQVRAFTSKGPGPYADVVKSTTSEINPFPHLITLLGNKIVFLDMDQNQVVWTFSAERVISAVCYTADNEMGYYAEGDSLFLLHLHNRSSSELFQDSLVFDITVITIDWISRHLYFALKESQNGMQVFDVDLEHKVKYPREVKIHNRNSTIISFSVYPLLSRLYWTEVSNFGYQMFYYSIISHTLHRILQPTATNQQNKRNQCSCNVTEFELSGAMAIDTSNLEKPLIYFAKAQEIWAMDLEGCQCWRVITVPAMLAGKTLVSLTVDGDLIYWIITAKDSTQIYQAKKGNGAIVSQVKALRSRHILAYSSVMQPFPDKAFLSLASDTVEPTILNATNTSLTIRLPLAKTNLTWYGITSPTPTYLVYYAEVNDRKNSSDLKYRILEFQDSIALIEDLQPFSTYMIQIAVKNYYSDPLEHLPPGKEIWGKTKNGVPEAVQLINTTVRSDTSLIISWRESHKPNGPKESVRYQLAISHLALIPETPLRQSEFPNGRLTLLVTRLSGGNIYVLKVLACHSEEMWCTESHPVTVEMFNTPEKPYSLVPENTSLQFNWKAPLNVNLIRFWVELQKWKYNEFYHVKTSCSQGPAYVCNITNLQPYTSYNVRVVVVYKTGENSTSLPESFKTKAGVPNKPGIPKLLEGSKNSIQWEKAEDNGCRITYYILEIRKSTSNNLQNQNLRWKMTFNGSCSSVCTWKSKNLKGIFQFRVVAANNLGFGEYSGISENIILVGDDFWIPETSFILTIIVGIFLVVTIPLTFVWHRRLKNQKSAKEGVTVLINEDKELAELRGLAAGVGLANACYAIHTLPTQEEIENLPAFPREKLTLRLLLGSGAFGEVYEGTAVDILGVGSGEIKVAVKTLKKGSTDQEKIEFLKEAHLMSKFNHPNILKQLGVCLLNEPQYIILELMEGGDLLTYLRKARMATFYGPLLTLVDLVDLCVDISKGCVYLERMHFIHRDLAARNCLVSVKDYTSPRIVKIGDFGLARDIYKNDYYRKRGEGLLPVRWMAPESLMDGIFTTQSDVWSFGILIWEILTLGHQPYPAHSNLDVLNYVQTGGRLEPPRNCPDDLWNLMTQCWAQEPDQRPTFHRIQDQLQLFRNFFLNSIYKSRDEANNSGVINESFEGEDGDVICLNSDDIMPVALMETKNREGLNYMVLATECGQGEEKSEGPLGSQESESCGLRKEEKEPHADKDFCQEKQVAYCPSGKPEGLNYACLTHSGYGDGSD
Sequence of Hepatocyte growth factor receptor (P08581 whole entry, the tested form may be a part): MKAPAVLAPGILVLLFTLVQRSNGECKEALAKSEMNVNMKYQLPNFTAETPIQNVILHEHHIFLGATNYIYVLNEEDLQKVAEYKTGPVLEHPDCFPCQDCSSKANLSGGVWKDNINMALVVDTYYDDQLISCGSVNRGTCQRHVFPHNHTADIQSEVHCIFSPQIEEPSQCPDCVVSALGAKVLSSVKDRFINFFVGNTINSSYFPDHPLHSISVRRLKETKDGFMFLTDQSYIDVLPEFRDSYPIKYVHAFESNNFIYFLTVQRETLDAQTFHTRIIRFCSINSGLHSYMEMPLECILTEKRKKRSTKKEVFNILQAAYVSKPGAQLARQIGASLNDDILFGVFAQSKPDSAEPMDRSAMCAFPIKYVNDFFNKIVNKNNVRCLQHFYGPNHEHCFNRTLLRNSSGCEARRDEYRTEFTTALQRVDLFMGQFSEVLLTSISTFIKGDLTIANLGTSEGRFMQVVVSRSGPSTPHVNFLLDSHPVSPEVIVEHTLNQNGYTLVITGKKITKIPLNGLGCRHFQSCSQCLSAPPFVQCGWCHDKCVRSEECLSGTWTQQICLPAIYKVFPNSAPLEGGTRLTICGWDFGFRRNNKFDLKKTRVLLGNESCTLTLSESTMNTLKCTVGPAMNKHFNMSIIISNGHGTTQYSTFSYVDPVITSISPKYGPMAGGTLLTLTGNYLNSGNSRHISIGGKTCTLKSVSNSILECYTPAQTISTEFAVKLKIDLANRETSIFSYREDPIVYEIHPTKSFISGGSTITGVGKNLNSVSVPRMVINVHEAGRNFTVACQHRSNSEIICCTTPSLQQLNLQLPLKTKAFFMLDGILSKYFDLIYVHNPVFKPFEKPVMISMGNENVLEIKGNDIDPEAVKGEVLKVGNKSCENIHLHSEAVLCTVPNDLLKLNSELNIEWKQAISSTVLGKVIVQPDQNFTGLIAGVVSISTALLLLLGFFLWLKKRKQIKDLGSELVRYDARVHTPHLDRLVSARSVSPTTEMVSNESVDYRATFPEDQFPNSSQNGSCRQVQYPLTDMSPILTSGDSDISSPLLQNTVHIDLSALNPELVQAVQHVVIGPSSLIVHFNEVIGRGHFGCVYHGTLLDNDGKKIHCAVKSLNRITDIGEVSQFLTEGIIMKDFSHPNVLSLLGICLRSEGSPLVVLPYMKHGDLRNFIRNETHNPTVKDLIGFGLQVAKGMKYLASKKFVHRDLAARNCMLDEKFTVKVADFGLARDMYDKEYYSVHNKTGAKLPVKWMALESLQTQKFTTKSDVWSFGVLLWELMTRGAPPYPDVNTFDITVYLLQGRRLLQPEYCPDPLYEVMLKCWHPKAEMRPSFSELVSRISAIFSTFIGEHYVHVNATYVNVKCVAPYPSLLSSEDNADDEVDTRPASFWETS
Sequence of Epidermal growth factor receptor (P00533 whole entry): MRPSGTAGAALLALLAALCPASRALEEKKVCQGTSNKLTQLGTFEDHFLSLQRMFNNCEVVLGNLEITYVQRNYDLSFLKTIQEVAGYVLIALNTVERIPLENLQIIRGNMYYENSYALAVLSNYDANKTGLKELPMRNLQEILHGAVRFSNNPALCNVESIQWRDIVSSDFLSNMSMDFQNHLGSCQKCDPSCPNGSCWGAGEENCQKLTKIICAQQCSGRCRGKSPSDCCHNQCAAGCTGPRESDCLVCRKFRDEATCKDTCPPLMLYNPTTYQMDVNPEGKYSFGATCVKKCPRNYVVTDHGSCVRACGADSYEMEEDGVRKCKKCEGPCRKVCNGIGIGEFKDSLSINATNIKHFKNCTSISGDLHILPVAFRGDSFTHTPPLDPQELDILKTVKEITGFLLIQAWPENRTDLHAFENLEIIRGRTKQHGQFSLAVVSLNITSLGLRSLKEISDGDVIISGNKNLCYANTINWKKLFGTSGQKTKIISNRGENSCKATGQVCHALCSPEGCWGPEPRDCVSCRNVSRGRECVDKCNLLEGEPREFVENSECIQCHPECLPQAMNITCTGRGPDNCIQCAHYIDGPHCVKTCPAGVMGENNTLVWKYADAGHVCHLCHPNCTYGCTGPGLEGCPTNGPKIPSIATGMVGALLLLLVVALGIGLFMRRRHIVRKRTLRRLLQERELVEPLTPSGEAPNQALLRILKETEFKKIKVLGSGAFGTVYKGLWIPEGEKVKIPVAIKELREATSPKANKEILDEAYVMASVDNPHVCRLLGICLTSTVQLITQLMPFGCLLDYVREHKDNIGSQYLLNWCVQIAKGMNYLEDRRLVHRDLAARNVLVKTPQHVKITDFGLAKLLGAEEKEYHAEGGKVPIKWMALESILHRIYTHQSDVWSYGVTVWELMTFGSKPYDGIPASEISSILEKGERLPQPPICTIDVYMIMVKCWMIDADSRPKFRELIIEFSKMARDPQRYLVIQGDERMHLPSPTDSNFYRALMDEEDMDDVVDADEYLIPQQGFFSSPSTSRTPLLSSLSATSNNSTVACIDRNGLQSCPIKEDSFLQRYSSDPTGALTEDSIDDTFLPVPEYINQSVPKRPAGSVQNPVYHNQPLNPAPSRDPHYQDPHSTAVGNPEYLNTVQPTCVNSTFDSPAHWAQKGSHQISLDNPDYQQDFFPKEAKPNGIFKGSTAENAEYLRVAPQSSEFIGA

COc1cc(-n2cc(CN3CCN(C)CC3)nn2)ccc1Nc1ncc(Cl)c(Nc2ccccc2S(=O)(=O)C(C)C)n1
IC50 [1]: 8.7 nM | IC50 [2]: 21 nM | IC50 [3]: 4.6 nM | Ratio IC50 [4]: 11 | IC50 [5]: 1.4 nM | IC50 [6]: > 1000 nM | IC50 [7]: 3 nM | IC50 [8]: > 1000 nM | IC50 [9]: 3.1 nM | IC50 [10]: 40 nM | inhibition [11]: Active | Activity [12]: Dose-dependent effect | IC50 [13]: 2.3 nM | Activity [14]: Active | IC50 [15]: 1.1 nM | IC50 [16]: 2.8 nM | IC50 [17]: 95 nM | Activity [18]: Dose-dependent effect | IC50 [19]: > 1000 nM | inhibition [20]: Dose-dependent effect | IC50 [21]: > 1000 nM | Ratio IC50 [22]: 10 | Activity [23]: Dose-dependent effect
